PubChem BioAssay AID1963834 (Molecular Pharmacology Branch, DTP, NCI, 2024)

Test system: 873145-292-R-J1-PDC complex spheroid viability
Assay: Anticancer human tumor 873145-292-R-J1-PDC patient-derived renal clear cell carcinoma cell line growth inhibition [POLQ]
Conditions: for IC50: curve of first compound; for viability, T/C: stronger effect = lower value; active means viability on the fitted dose curve at most 10% of control; inactive means the rest
In short: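 Growth inhibition in 3D: complex spheroids (tumor PDC, HUVEC, MSC) treated with POLQ inhibitor combinations; where Cmax unknown, highest tested concentration 10 microM, except SN-38 at 1 microM.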

[1] = second compound 0.0316 µM, first compound 0.00316 µM
[2] = second compound 0.0316 µM, first compound 0.01 µM
[3] = second compound 0.0316 µM, first compound 0.0316 µM
[4] = second compound 0.0316 µM, first compound 0.1 µM
[5] = second compound 0.0316 µM, first compound 0.316 µM
[6] = second compound 0.0316 µM, first compound 1 µM
[7] = second compound 0.1 µM, first compound 0.00316 µM
[8] = second compound 0.1 µM, first compound 0.01 µM
[9] = second compound 0.1 µM, first compound 0.0316 µM
[10] = second compound 0.1 µM, first compound 0.1 µM
[11] = second compound 0.1 µM, first compound 0.316 µM
[12] = second compound 0.1 µM, first compound 1 µM
[13] = second compound 0.316 µM, first compound 0.00316 µM
[14] = second compound 0.316 µM, first compound 0.01 µM
[15] = second compound 0.316 µM, first compound 0.0316 µM
[16] = second compound 0.316 µM, first compound 0.1 µM
[17] = second compound 0.316 µM, first compound 0.316 µM
[18] = second compound 0.316 µM, first compound 1 µM
[19] = second compound 1 µM, first compound 0.00316 µM
[20] = second compound 1 µM, first compound 0.01 µM
[21] = second compound 1 µM, first compound 0.0316 µM
[22] = second compound 1 µM, first compound 0.1 µM
[23] = second compound 1 µM, first compound 0.316 µM
[24] = second compound 1 µM, first compound 1 µM
[25] = second compound 3.16 µM, first compound 0.00316 µM
[26] = second compound 3.16 µM, first compound 0.01 µM
[27] = second compound 3.16 µM, first compound 0.0316 µM
[28] = second compound 3.16 µM, first compound 0.1 µM
[29] = second compound 3.16 µM, first compound 0.316 µM
[30] = second compound 3.16 µM, first compound 1 µM
[31] = second compound 10 µM, first compound 0.00316 µM
[32] = second compound 10 µM, first compound 0.01 µM
[33] = second compound 10 µM, first compound 0.0316 µM
[34] = second compound 10 µM, first compound 0.1 µM
[35] = second compound 10 µM, first compound 0.316 µM
[36] = second compound 10 µM, first compound 1 µM
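Further: spheroids exposed to compounds for 7 days before viability readout.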
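Wherever viability, T/C is given: luminescence signal used as surrogate for viable cell content; 100% = DMSO vehicle control viability.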

COc1cccc(OCCCN)c1-c1cc(Nc2cnc(C#N)cn2)n[nH]1 + Nc1ccc(C#CCN(C(=O)Cc2ncc(C(F)(F)F)cc2C(F)(F)F)c2ccc(F)cc2)nn1
inactive: viability, T/C [1] 94% | viability, T/C [2] 94.2% | viability, T/C [3] 76.3% | viability, T/C [4] 66.6% | viability, T/C [5] 74.3% | viability, T/C [6] 73.2% | viability, T/C [7] 91% | viability, T/C [8] 98.2% | viability, T/C [9] 74.8% | viability, T/C [10] 71.8% | viability, T/C [11] 65.4% | viability, T/C [12] 71.1% | viability, T/C [13] 95.5% | viability, T/C [14] 97% | viability, T/C [15] 67.7% | viability, T/C [16] 66.6% | viability, T/C [17] 79.9% | viability, T/C [18] 77.8% | viability, T/C [19] 96.3% | viability, T/C [20] 78.4% | viability, T/C [21] 73.8% | viability, T/C [22] 70.8% | viability, T/C [23] 83.5% | viability, T/C [24] 73.3% | viability, T/C [25] 90.3% | viability, T/C [26] 88.9% | viability, T/C [27] 68.9% | viability, T/C [28] 67.1% | viability, T/C [29] 65.2% | viability, T/C [30] 83.9% | viability, T/C [31] 103% | viability, T/C [32] 90.3% | viability, T/C [33] 74.3% | viability, T/C [34] 68.5% | viability, T/C [35] 69.1% | viability, T/C [36] 95.5%
> 1000 nM: IC50 (second compound 0.0316 µM) | IC50 (second compound 0.1 µM) | IC50 (second compound 0.316 µM) | IC50 (second compound 1 µM) | IC50 (second compound 3.16 µM) | IC50 (second compound 10 µM)

CCc1cc2c(N3CCc4c(cc(Cn5ccnc5)cc4-c4cn(C)nc4C(F)(F)F)C3=O)cc(C)nc2c(OC)n1 + Nc1ccc(C#CCN(C(=O)Cc2ncc(C(F)(F)F)cc2C(F)(F)F)c2ccc(F)cc2)nn1
inactive: viability, T/C [3] 92.6% | viability, T/C [4] 110% | viability, T/C [5] 101% | viability, T/C [6] 91.2% | viability, T/C (second compound 0.0316 µM, first compound 3.16 µM) 80.6% | viability, T/C (second compound 0.0316 µM, first compound 10 µM) 75.2% | viability, T/C [9] 103% | viability, T/C [10] 100% | viability, T/C [11] 77.9% | viability, T/C [12] 93% | viability, T/C (second compound 0.1 µM, first compound 3.16 µM) 79.2% | viability, T/C (second compound 0.1 µM, first compound 10 µM) 68.6% | viability, T/C [15] 94.4% | viability, T/C [16] 109% | viability, T/C [17] 74% | viability, T/C [18] 90.7% | viability, T/C (second compound 0.316 µM, first compound 3.16 µM) 95.8% | viability, T/C (second compound 0.316 µM, first compound 10 µM) 73.6% | viability, T/C [21] 101% | viability, T/C [22] 92.5% | viability, T/C [23] 91.9% | viability, T/C [24] 95.8% | viability, T/C (second compound 1 µM, first compound 3.16 µM) 77.6% | viability, T/C (second compound 1 µM, first compound 10 µM) 76.8% | viability, T/C [27] 97.9% | viability, T/C [28] 104% | viability, T/C [29] 97.6% | viability, T/C [30] 93% | viability, T/C (second compound 3.16 µM, first compound 3.16 µM) 85.7% | viability, T/C (second compound 3.16 µM, first compound 10 µM) 78.9% | viability, T/C [33] 105% | viability, T/C [34] 101% | viability, T/C [35] 98% | viability, T/C [36] 97.3% | viability, T/C (second compound 10 µM, first compound 3.16 µM) 89% | viability, T/C (second compound 10 µM, first compound 10 µM) 69.2%
> 10000 nM: IC50 (second compound 0.0316 µM) | IC50 (second compound 0.1 µM) | IC50 (second compound 0.316 µM) | IC50 (second compound 1 µM) | IC50 (second compound 3.16 µM) | IC50 (second compound 10 µM)

CC[C@@]1(O)C(=O)OCc2c1cc1n(c2=O)Cc2cc3c(CN(C)C)c(O)ccc3nc2-1 + COC1C(OC(N)=O)C(O)C(Oc2ccc3c(O)c(NC(=O)c4ccc(O)c(CC=C(C)C)c4)c(=O)oc3c2C)OC1(C)C
95.5 nM: IC50 (second compound 3.16 µM)
91.9 nM: IC50 (second compound 1 µM)
inactive: viability, T/C (second compound 0.0316 µM, first compound 0.000316 µM) 100% | viability, T/C (second compound 0.0316 µM, first compound 0.001 µM) 98.3% | viability, T/C [1] 96.2% | viability, T/C [2] 90% | viability, T/C [3] 91.5% | viability, T/C [4] 47.6% | viability, T/C (second compound 0.1 µM, first compound 0.000316 µM) 112% | viability, T/C (second compound 0.1 µM, first compound 0.001 µM) 97.6% | viability, T/C [7] 90.8% | viability, T/C [8] 96.3% | viability, T/C [9] 80.6% | viability, T/C [10] 48.9% | viability, T/C (second compound 0.316 µM, first compound 0.000316 µM) 104% | viability, T/C (second compound 0.316 µM, first compound 0.001 µM) 89.3% | viability, T/C [13] 92.9% | viability, T/C [14] 110% | viability, T/C [15] 81.5% | viability, T/C [16] 53.9% | viability, T/C (second compound 1 µM, first compound 0.000316 µM) 98.4% | viability, T/C (second compound 1 µM, first compound 0.001 µM) 95.3% | viability, T/C [19] 92.8% | viability, T/C [20] 91% | viability, T/C [21] 80.3% | viability, T/C [22] 47.3% | viability, T/C (second compound 3.16 µM, first compound 0.000316 µM) 101% | viability, T/C (second compound 3.16 µM, first compound 0.001 µM) 97.8% | viability, T/C [25] 92.7% | viability, T/C [26] 90.9% | viability, T/C [27] 75.1% | viability, T/C [28] 48.6% | viability, T/C (second compound 10 µM, first compound 0.000316 µM) 104% | viability, T/C (second compound 10 µM, first compound 0.001 µM) 100% | viability, T/C [31] 91.7% | viability, T/C [32] 98.6% | viability, T/C [33] 71.8% | viability, T/C [34] 50.7%
94.4 nM: IC50 (second compound 0.0316 µM)
> 100 nM: IC50 (second compound 0.1 µM) | IC50 (second compound 0.316 µM) | IC50 (second compound 10 µM)
